Measurements: patent publication US8614206B2 (Genentech, Inc., priority 2011, dated 2013)
pEC50, pIC50, pKi: −log10 of the molar value. Read-outs that look alike come from different tables or passages of the source.

How the values were obtained:
BaF3 parental cells = assay: In vitro cell proliferation, BaF3 parental line + IL3 (CellTiter-Glo); format: cell-based, murine
Experimental: BaF3 parental line was obtained from the DSMZ repository. BaF3 lines transfected with PIM 1 or PIM2 were generated. Mouse IL-3 was purchased from R&D Systems. G418 was purchased from Clontech. Media for BaF3 parental line contained RPMI, 10% FBS, 2 mM L-Glutamine, 2 ng/mL mIL-3. Media for BaF3 PIM1 & 2 lines contained RPMI, 10% FBS, 2 mM L-Glutamine, 250 μg/mL.
BaF3, a murine interleukin-3 dependent pro-B cell line, parental cells, BaF3 PIM1 cells, BaF3 PIM2 cells, and MM1.S (multiple myeloma) cells were seeded at 2 k/well, 5 k/well, 5 k/well, and 10 k/well respectively, in a 384-well plate, at 45 μL/well. Test compound was added at 5 μL/well. BaF3 cells (parental and transfected) were incubated overnight, while MM1.S cells were incubated for 72 hours at 37° C., 5% CO2. CELL TITER GLO® Reagent (Promega) was added at 50 μL/well, the plates were incubated for 30 minutes, and their luminescence read on an HT Analyst. IC50/EC50 values for the test compound were calculated.

[1] = tested on: MM1.S (multiple myeloma) cells; assay: In vitro cell proliferation, MM1.S multiple myeloma cells (CellTiter-Glo, ATP); format: cell-based; details: read-out: Prolif MM1S ATP (EC50)
Experimental: BaF3, a murine interleukin-3 dependent pro-B cell line, parental cells, BaF3 PIM1 cells, BaF3 PIM2 cells, and MM1.S (multiple myeloma) cells were seeded at 2 k/well, 5 k/well, 5 k/well, and 10 k/well respectively, in a 384-well plate, at 45 μL/well. Test compound was added at 5 μL/well. BaF3 cells (parental and transfected) were incubated overnight, while MM1.S cells were incubated for 72 hours at 37° C., 5% CO2. […] IC50/EC50 values for the test compound were calculated.

PIM1 = PIM1 (Homo sapiens (Human), UniProt P11309); assay: Pim kinase inhibition, PIM1 LC3K (Example 901); format: biochemical
Chain of PIM1 (P11309 whole entry): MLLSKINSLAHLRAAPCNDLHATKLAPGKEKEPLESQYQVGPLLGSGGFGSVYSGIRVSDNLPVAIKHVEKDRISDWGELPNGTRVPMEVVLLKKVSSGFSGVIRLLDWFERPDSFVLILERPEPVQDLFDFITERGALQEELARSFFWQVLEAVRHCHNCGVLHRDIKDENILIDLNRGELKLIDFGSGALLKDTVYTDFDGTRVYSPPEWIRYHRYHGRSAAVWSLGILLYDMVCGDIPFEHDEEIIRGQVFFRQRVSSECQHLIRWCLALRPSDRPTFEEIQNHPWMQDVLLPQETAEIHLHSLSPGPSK
Source text: Determination of the Pim kinase activity of a Formula I compound is possible by a number of direct and indirect detection methods.

[2] = Mus musculus, BaF3, BaF3 parental cells with IL-3, incubated overnight, read-out: Prolif BaF3 + IL3 (IC50)
[3] = Mus musculus, BaF3, BaF3 parental cells with IL-3, incubated overnight, read-out: Prolif BaF3 IL3 (IC50)
[4] = BaF3 parental cells with IL-3, incubated overnight, read-out: Prolif BaF3 + IL3 (IC50)

Row | Compound | pEC50 ([1]; Homo sapiens, MM1.S, 72 h) | pEC50 ([1]; 72 hours) | pIC50 (BaF3 parental cells; [2]) | pIC50 (BaF3 parental cells; [4]) | other results
1 | COC1CCN(c2c(NC(=O)c3nc(-c4ncccc4F)sc3N)cnn2C)CCC1N (racemic) [Example 323, 5-amino-N-[5-(4-amino-5-methoxy-azepan-1-yl)-1-methyl-pyrazol-4-yl]-2-(3-fluoro-2-pyridyl)thiazole-4-carboxamide] | 6.78 |  | < 4.60 |  | 
2 | Cn1ncc(NC(=O)c2nc(-c3c(F)cccc3F)sc2N)c1N1CCCC(C)(N)CC1 (racemic) [Example 411, 5-amino-N-[5-(4-amino-4-methyl-azepan-1-yl)-1-methyl-pyrazol-4-yl]-2-(2,6-difluorophenyl)thiazole-4-carboxamide] | 5.74 |  | 4.75 |  | 
3 | Cn1ncc(NC(=O)c2nc(-c3c(F)cccc3F)sc2N)c1N1CCC[C@H](N)[C@@H](F)C1 (single isomer, unassigned) [Example 158] | 5.52 |  |  |  | pIC50 (BaF3 parental cells; [3]): 4.94
4 | Cn1ncc(NC(=O)c2nc(-c3ccccc3F)sc2N)c1N1CC[C@@H](N)[C@H](F)CC1 (single isomer, unassigned) [Example 230] | 5.89 |  |  |  | pIC50 (BaF3 parental cells; [3]): 4.74
5 | Cn1ncc(NC(=O)c2nc(-c3c(F)cccc3F)sc2N)c1N1CCC(N)C(O)CC1 (single isomer, unassigned) [Example 327, 5-amino-N-[5-(4-amino-5-hydroxy-azepan-1-yl)-1-methyl-pyrazol-4-yl]-2-(2,6-difluorophenyl)thiazole-4-carboxamide] |  | 4.83 | < 4.60 |  | 
6 | Cn1ncc(NC(=O)c2nc(-c3c(F)cccc3F)sc2N)c1N1CCC(N)C(O)CC1 (single isomer, unassigned) [Example 328, 5-amino-N-[5-(4-amino-5-hydroxy-azepan-1-yl)-1-methyl-pyrazol-4-yl]-2-(2,6-difluorophenyl)thiazole-4-carboxamide] |  | 4.94 |  | < 4.60 | 
7 | Cn1ncc(NC(=O)c2nc(-c3c(F)cccc3F)sc2N)c1N1CCC(N)C(O)CC1 (single isomer, unassigned) [Example 337, 5-amino-N-[5-(4-amino-5-hydroxy-azepan-1-yl)-1-methyl-pyrazol-4-yl]-2-(2,6-difluorophenyl)thiazole-4-carboxamide] |  | 7.51 |  | 4.60 | 
8 | COC1(C)CC(N)CCN(c2c(NC(=O)c3nc(-c4c(F)cccc4F)sc3N)cnn2C)C1 (single isomer, unassigned) [Example 352, 5-amino-N-[5-(5-amino-3-methoxy-3-methyl-azepan-1-yl)-1-methyl-pyrazol-4-yl]-2-(2,6-difluorophenyl)thiazole-4-carboxamide] |  | 8.06 |  | 4.98 | 
9 | COC1(C)CC(N)CCN(c2c(NC(=O)c3nc(-c4c(F)cccc4F)sc3N)cnn2C)C1 (single isomer, unassigned) [Example 353, 5-amino-N-[5-(5-amino-3-methoxy-3-methyl-azepan-1-yl)-1-methyl-pyrazol-4-yl]-2-(2,6-difluorophenyl)thiazole-4-carboxamide] |  | 6.86 |  | 4.60 | 
10 | Cn1ncc(NC(=O)c2nc(-c3c(F)cccc3F)sc2N)c1N1CC[C@H](N)C[C@@H](F)C1 (stereo in doubt) [Example 154, 5-amino-N-(5-(5-amino-3-fluoroazepan-1-yl)-1-methyl-1H-pyrazol-4-yl)-2-(2,6-difluorophenyl)thiazole-4-carboxamide] | 7.19 |  |  |  | pIC50 (BaF3 parental cells; [3]): 4.61
11 | CNCC1CCN(c2c(NC(=O)c3nc(-c4c(F)cccc4F)sc3N)cnn2C)CC1 [Example 101, 5-Amino-2-(2,6-difluorophenyl)-N-(1-methyl-5-(4-((methylamino)methyl)piperidin-1-yl)-1H-pyrazol-4-yl)thiazole-4-carboxamide] | 4.75 |  |  |  | pIC50 (BaF3 parental cells; [3]): 4.71
12 | CC[C@H]1CNCCN1c1c(NC(=O)c2nc(-c3c(F)cccc3F)sc2N)cnn1C [Example 113, (S)-5-Amino-2-(2,6-difluorophenyl)-N-(5-(2-ethylpiperazin-1-yl)-1-methyl-1H-pyrazol-4-yl)thiazole-4-carboxamide] | 4.72 |  |  |  | pIC50 (BaF3 parental cells; [3]): < 4.60
13 | Cn1ncc(NC(=O)c2nc(-c3c(F)cccc3F)sc2N)c1N1CCC2(CCNC2)CC1 [Example 124, 5-Amino-2-(2,6-difluorophenyl)-N-(1-methyl-5-(2,8-diazaspiro[4.5]decan-8-yl)-1H-pyrazol-4-yl)thiazole-4-carboxamide] | 5.85 |  |  |  | pIC50 (BaF3 parental cells; [3]): 4.66
14 | Nc1sc(-c2c(F)cccc2F)nc1C(=O)Nc1cnn(CC(F)F)c1N1CC[C@@H](O)[C@@H](N)CC1 [Example 375, 5-amino-N-(5-((4S,5R)-4-amino-5-hydroxyazepan-1-yl)-1-(2,2-difluoroethyl)-1H-pyrazol-4-yl)-2-(2,6-difluorophenyl)thiazole-4-carboxamide] | 7.15 |  |  |  | pKi (PIM1): 10.29
15 | Cn1ncc(NC(=O)c2nc(-c3ncccc3F)sc2N)c1N1CC[C@@H](F)[C@@H](N)CC1 [Example 388, 5-amino-N-(5-((4S,5R)-4-amino-5-fluoroazepan-1-yl)-1-methyl-1H-pyrazol-4-yl)-2-(3-fluoropyridin-2-yl)thiazole-4-carboxamide] | 6.40 |  |  |  | pKi (PIM1): 9.34
16 | CCn1ncc(NC(=O)c2nc(-c3ccccc3F)sc2N)c1N1CCC(N)C(OC)CC1 (stereo not drawn) [Example 392, 5-amino-N-[5-(4-amino-5-methoxy-azepan-1-yl)-1-ethyl-pyrazol-4-yl]-2-(2-fluorophenyl)thiazole-4-carboxamide] | 6.69 |  |  |  | pKi (PIM1): 9.18

Second part, led by results:

Row | pEC50 ([1]; Homo sapiens, MM1.S, 72 h) | pEC50 ([1]; 72 hours) | Compound | pIC50 (BaF3 parental cells; [2]) | pIC50 (BaF3 parental cells; [4]) | other results
17 | 7.16 |  | CO[C@H]1CCC(c2c(NC(=O)c3nc(-c4ccccc4F)sc3N)cnn2C)CC[C@@H]1N (single isomer, unassigned) [Example 414] | < 4.60 |  | 
18 | 5.31 |  | Cn1ncc(NC(=O)c2nc(-c3c(F)cccc3F)sc2N)c1N1CCCC(C)(N)CC1 (single isomer, unassigned) [Example 436, 5-amino-N-[5-(4-amino-4-methyl-azepan-1-yl)-1-methyl-pyrazol-4-yl]-2-(2,6-difluorophenyl)thiazole-4-carboxamide] | 5.08 |  | 
19 |  | 5.85 | Cn1ncc(NC(=O)c2nc(-c3c(F)cccc3F)sc2N)c1N1CCC(N)CC2(CCO2)C1 (single isomer, unassigned) [Example 448, 5-amino-N-[5-(6-amino-1-oxa-9-azaspiro[3.6]decan-9-yl)-1-methyl-pyrazol-4-yl]-2-(2,6-difluorophenyl)thiazole-4-carboxamide] | < 4.60 |  | 
20 |  | 7.10 | Cn1ncc(NC(=O)c2nc(-c3c(F)cccc3F)sc2N)c1N1CCC(N)CC2(CCO2)C1 (single isomer, unassigned) [Example 452, 5-amino-N-[5-(6-amino-1-oxa-9-azaspiro[3.6]decan-9-yl)-1-methyl-pyrazol-4-yl]-2-(2,6-difluorophenyl)thiazole-4-carboxamide] |  | 4.61 | 
21 |  | < 4.60 | Cn1ncc(NC(=O)c2nc(-c3c(F)cccc3F)sc2N)c1C1CCC(N)CC(C)(O)C1 (single isomer, unassigned) [Example 456, 5-amino-N-[5-(5-amino-3-hydroxy-3-methyl-cycloheptyl)-1-methyl-pyrazol-4-yl]-2-(2,6-difluorophenyl)thiazole-4-carboxamide] | < 4.60 |  | 
22 |  | 5.32 | Cn1ncc(NC(=O)c2nc(-c3c(F)cccc3F)sc2N)c1C1CCC(N)CC(C)(O)C1 (single isomer, unassigned) [Example 467, 5-amino-N-[5-(5-amino-3-hydroxy-3-methyl-cycloheptyl)-1-methyl-pyrazol-4-yl]-2-(2,6-difluorophenyl)thiazole-4-carboxamide] |  | < 4.60 | 
23 |  | 6.08 | Cn1ncc(NC(=O)c2nc(-c3c(F)cccc3F)sc2N)c1C1CCC(N)CC(C)(O)C1 (single isomer, unassigned) [Example 468, 5-amino-N-[5-(5-amino-3-hydroxy-3-methyl-cycloheptyl)-1-methyl-pyrazol-4-yl]-2-(2,6-difluorophenyl)thiazole-4-carboxamide] |  | < 4.60 | 
24 | < 4.60 |  | Cn1ncc(NC(=O)c2nc(-c3c(F)cccc3F)sc2N)c1N1CCNC[C@]2(CCO2)C1 (single isomer, unassigned) [Example 483] | < 4.60 |  | 
25 |  | 5.66 | COC1(C)CCN(c2c(NC(=O)c3nc(-c4c(F)cccc4F)sc3N)cnn2C)CCC1N (single isomer, unassigned) [Example 502, 5-amino-N-[5-(5-amino-4-methoxy-4-methyl-azepan-1-yl)-1-methyl-pyrazol-4-yl]-2-(2,6-difluorophenyl)thiazole-4-carboxamide] | 4.92 |  | 
26 |  | 6.97 | COC1(C)CCN(c2c(NC(=O)c3nc(-c4c(F)cccc4F)sc3N)cnn2C)CCC1N (single isomer, unassigned) [Example 503, 5-amino-N-[5-(5-amino-4-methoxy-4-methyl-azepan-1-yl)-1-methyl-pyrazol-4-yl]-2-(2,6-difluorophenyl)thiazole-4-carboxamide] |  | 4.96 | 
27 | 5.70 |  | Cn1ncc(NC(=O)c2nc(-c3c(F)cccc3F)sc2N)c1N1CCC(N)C(C(F)F)CC1 (single isomer, unassigned) [Example 512, 5-amino-N-[5-[4-amino-5-(difluoromethyl)azepan-1-yl]-1-methyl-pyrazol-4-yl]-2-(2,6-difluorophenyl)thiazole-4-carboxamide] |  | 4.61 | 
